Values of other authors in patent publication US8802148B2, “Microparticles and method for their production” (Alrise Biosystems GmbH, priority 2002, dated 2014).
Where a name gives a salt, the structure may show the parent alone.

Conditions: at 20-25° C.
For `CCOC(C)=O` [ethyl acetate], the “Solubility in water (w/w)” value is listed as 7.43%.
In the case of `CCOC=O` [ethyl formate], the “Solubility in water (w/w)” value is given as 8.4%.
For `CC(=O)OC(C)C` [iIsopropyl acetate, isopropyl acetate], the “Solubility in water (w/w)” value is given as 3.09%.
In the case of `COC(C)=O` [methyl acetate], the “Solubility in water (w/w)” value is listed as 22.8%.
In the case of `CCCOC(C)=O` [propyl acetate], the “Solubility in water (w/w)” value is listed as 1.67%.
For `CCCOC=O` [propyl formate], the “Solubility in water (w/w)” value is listed as 2.82%.
